# Where two headings read alike, the source gives them in different places. Ends that are not written are not given here.
# Experiments:
# [1] = target: Serotonin (5-Hydroxytryptamine) 5-HT2B (Homo sapiens, UniProt P41595); details: cited from earlier work
# Rolipram [2] = details: reference compound, vendor historical; cited from earlier work
# Rolipram [3] = assay: Radioligand binding 270000; design: species or system rat; details: reference compound; read-out: IC50 Concurrent
# [4] = target: Calcium Channel L-Type, Benzothiazepine (Rattus norvegicus, UniProt P22002); details: cited from earlier work
# [5] = target: T1, Platelet Activating Factor (PAF) (Homo sapiens, UniProt P25105); details: cited from earlier work
# T1 construct: Human platelets; host or cells: human platelets
# Glucocorticoid = Glucocorticoid (Homo sapiens, UniProt P04150); details: cited from earlier work
# Sequence of Glucocorticoid (P04150 whole entry): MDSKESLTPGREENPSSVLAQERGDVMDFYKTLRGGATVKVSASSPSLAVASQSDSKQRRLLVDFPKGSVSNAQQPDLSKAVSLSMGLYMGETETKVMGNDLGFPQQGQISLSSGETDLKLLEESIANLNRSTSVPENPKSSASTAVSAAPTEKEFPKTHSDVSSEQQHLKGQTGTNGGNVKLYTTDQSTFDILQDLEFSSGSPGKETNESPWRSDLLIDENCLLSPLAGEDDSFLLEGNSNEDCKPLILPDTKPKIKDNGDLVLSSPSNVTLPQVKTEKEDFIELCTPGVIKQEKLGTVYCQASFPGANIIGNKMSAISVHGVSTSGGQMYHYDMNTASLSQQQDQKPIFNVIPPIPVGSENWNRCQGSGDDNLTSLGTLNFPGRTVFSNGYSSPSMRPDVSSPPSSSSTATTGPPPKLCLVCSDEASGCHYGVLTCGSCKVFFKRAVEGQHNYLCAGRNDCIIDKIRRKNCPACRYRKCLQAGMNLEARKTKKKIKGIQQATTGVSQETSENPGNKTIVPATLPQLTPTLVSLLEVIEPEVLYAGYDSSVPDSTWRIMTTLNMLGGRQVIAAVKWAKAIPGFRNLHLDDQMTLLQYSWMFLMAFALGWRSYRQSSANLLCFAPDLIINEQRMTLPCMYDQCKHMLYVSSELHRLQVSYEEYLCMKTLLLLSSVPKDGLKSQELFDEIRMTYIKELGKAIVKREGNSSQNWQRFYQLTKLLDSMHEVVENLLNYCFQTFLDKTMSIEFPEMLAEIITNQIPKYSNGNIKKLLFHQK
# Tachykinin NK1 [6] = target: T2, Tachykinin NK1 (Homo sapiens, UniProt P25103); assay: Radioligand binding 255520; details: reference compound; read-out: IC50 Concurrent
# T2 construct: host or cells: CHO
# T2 sequence (P25103 whole entry): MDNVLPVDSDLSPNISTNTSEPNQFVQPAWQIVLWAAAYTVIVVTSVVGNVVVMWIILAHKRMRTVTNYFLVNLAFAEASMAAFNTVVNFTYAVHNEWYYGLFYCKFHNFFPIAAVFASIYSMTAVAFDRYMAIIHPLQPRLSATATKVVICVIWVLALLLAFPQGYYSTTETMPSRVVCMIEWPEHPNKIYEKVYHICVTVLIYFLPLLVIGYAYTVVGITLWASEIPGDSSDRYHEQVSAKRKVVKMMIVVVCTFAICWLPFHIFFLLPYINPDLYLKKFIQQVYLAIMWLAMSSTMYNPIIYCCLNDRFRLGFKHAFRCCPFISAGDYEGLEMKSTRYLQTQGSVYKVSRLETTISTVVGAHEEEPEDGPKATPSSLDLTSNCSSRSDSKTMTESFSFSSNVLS
# Tachykinin NK1 [7] = target: T2, Tachykinin NK1; details: reference compound, vendor historical; cited from earlier work
# Adenosine A1 = target: T3, Adenosine A1 (Homo sapiens, UniProt P30542); details: cited from earlier work
# T3 construct: host or cells: CHO cells
# Opiate µ(OP3, MOP) = target: T4, Opiate µ(OP3, MOP) (Homo sapiens, UniProt P35372); details: cited from earlier work
# T4 construct: host or cells: CHO-K1 cells
# T4 sequence (P35372 whole entry): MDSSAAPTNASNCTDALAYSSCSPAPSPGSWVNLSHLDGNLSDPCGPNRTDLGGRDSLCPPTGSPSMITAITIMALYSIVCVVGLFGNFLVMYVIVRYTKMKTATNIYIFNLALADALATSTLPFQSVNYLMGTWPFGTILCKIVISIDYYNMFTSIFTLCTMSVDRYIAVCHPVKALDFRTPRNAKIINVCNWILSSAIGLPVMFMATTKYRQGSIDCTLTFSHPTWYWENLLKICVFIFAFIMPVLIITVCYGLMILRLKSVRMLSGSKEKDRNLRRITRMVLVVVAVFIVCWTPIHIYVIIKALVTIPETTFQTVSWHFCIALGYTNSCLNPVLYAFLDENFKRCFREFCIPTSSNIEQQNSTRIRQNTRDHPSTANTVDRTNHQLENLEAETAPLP
# [8] = target: Transporter, Dopamine (DAT) (Homo sapiens, UniProt Q01959); details: cited from earlier work
# Sequence of Transporter, Dopamine (DAT) (Q01959 whole entry): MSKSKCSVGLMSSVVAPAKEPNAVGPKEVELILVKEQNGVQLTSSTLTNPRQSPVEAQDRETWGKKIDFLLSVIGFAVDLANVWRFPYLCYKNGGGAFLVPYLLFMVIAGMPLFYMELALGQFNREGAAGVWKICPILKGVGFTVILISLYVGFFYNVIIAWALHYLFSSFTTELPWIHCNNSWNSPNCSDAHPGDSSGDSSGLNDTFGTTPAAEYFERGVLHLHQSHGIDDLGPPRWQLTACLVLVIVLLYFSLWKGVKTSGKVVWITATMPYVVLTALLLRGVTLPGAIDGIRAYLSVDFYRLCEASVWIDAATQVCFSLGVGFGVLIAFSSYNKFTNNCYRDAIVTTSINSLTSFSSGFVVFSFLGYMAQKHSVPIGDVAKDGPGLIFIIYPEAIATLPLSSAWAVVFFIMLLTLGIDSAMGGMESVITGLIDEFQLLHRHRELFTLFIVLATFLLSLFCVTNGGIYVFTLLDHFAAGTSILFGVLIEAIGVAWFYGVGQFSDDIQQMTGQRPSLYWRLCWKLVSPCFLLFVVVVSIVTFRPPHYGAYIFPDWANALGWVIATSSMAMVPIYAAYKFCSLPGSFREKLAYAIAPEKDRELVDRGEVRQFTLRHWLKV
# Bradykinin B2 = Bradykinin B2 (Homo sapiens, UniProt P30411); details: cited from earlier work
# Phorbol Ester [9] = assay: Radioligand binding 264500; design: species or system mouse; details: reference compound; read-out: IC50 Concurrent
# Phorbol Ester [10] = details: reference compound, vendor historical; cited from earlier work
# Adenosine A3 = Adenosine A3 (Homo sapiens, UniProt P0DMS8); details: reference compound, vendor historical; cited from earlier work
# Sequence of Adenosine A3 (P0DMS8 whole entry): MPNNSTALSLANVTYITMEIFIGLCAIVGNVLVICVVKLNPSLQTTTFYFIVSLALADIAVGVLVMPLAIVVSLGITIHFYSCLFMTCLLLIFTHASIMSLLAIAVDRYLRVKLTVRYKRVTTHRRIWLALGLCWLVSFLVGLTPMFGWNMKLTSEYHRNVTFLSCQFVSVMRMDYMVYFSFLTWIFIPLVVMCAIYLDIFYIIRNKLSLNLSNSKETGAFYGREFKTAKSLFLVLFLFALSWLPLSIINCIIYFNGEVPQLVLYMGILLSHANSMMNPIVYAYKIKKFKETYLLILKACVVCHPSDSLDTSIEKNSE
# Histamine H2 = Histamine H2 (Homo sapiens, UniProt P25021); details: cited from earlier work
# Sequence of Histamine H2 (P25021 whole entry): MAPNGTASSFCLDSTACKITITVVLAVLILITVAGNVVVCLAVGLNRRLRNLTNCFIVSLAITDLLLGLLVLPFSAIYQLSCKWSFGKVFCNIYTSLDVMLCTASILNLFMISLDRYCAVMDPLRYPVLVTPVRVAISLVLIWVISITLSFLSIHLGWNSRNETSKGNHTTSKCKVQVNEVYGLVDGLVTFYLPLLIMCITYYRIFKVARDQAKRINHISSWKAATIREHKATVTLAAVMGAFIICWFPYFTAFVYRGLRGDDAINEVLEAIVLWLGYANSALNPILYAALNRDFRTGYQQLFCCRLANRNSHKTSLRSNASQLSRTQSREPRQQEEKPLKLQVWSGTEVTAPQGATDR
# Adrenergic α2A = target: T5, Adrenergic α2A (Homo sapiens, UniProt P08913); details: cited from earlier work
# T5 construct: host or cells: insect Sf9 cells
# T5 sequence (P08913 whole entry): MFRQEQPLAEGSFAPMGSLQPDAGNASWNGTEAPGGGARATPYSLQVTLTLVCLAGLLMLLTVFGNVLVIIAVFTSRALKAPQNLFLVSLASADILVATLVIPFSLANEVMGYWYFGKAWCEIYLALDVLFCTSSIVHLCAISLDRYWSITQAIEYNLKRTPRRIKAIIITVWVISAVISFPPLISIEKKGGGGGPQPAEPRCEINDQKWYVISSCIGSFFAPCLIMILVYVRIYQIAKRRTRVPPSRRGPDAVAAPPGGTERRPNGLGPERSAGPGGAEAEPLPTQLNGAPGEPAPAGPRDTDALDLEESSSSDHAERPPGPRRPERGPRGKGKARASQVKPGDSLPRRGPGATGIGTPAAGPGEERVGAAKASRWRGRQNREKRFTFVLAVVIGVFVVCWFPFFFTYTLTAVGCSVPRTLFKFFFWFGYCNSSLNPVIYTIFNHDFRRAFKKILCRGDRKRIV
# Adrenergic α1A = target: T6, Adrenergic α1A (Rattus norvegicus, UniProt P43140); details: cited from earlier work
# T6 construct: Wistar Rat submaxillary gland; tissue Eurofins Panlabs (assay Cat #) 203100; host or cells: Wistar rat submaxillary gland
# Adrenergic α1B = target: T7, Adrenergic α1B (Rattus norvegicus, UniProt P15823); details: cited from earlier work
# T7 construct: Wistar Rat liver; tissue Eurofins Panlabs (assay Cat #) 203200; host or cells: Wistar rat liver
# T7 sequence (P15823 whole entry): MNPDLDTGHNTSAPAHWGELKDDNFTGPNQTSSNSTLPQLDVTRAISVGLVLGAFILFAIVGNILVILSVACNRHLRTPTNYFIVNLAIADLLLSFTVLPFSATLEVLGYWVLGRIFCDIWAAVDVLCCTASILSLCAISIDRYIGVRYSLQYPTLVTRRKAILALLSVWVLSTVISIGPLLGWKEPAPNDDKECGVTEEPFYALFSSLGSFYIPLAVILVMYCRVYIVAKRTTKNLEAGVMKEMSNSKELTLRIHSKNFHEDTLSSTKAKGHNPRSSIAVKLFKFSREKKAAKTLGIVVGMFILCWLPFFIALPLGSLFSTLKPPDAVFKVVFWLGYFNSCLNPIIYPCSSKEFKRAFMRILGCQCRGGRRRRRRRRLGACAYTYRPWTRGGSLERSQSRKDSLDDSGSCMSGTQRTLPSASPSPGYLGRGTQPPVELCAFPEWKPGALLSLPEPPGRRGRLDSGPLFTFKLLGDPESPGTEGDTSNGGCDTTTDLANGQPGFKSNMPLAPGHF
# [11] = not told; cited from earlier work
# Melatonin MT1 = target: T8, Melatonin MT1 (Homo sapiens, UniProt P48039); details: cited from earlier work
# T8 construct: host or cells: CHO-K1 cells
# T8 sequence (P48039 whole entry): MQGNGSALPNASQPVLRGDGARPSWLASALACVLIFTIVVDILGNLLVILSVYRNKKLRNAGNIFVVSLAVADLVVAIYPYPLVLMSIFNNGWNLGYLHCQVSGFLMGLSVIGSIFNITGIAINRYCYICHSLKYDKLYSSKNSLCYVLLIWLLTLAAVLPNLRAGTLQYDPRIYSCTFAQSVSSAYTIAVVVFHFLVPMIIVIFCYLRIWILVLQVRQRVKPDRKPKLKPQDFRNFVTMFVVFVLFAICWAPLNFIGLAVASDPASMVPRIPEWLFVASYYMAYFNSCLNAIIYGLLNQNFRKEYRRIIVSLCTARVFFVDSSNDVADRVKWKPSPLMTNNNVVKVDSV
# Sequence of Serotonin (5-Hydroxytryptamine) 5-HT2B (P41595 whole entry): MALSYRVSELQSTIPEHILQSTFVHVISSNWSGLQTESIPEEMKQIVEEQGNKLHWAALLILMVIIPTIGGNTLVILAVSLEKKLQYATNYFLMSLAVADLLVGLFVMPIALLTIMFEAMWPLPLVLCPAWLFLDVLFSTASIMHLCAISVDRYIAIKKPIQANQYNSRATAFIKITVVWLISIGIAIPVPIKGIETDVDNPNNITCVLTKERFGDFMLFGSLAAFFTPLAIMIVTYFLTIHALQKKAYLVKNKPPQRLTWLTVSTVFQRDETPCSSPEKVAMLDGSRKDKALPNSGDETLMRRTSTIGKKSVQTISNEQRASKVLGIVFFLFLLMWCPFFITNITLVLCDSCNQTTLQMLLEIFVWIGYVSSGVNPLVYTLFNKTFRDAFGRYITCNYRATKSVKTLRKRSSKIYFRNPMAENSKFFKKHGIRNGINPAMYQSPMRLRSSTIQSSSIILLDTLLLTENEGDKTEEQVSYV
compound,measurement,setting,value
O=C(c1ccc(F)cc1)C1CCN(CCn2c(=O)[nH]c3ccccc3c2=O)CC1 [Ketanserin],nH Historical,[1],0.60
COc1ccc(C2CNC(=O)C2)cc1OC1CCCC1 (stereo not shown) [Rolipram],IC50,Rolipram [2],5.7 nM
same,Ki,Rolipram [2],2.1 nM
same,IC50,Rolipram [3],2.45 nM
COc1ccc([C@@H]2Sc3ccccc3N(CCN(C)C)C(=O)[C@@H]2OC(C)=O)cc1 [Diltiazem],nH Historical,[4],0.90
PAF,nH Historical,[5],0.90
C[C@@H]1C[C@H]2[C@@H]3CCC4=CC(=O)C=C[C@]4(C)[C@@]3(F)[C@@H](O)C[C@]2(C)[C@@]1(O)C(=O)CO [Dexamethasone],nH Historical,Glucocorticoid,0.90
"Ic1ccccc1CN[C@@H]1C2CCN(CC2)[C@@H]1C(c1ccccc1)c1ccccc1 (racemic) [L-703,606]",IC50,Tachykinin NK1 [6],2.6 nM
same,IC50,Tachykinin NK1 [7],3.6 nM
same,Ki,Tachykinin NK1 [7],2.6 nM
same,nH Historical,Tachykinin NK1 [7],1.0
C[C@H](Cc1ccccc1)Nc1ncnc2c1ncn2[C@@H]1O[C@H](CO)[C@@H](O)[C@H]1O [R(-)-PIA],nH Historical,Adenosine A1,0.90
C[C@@H](NC(=O)[C@@H](N)Cc1ccc(O)cc1)C(=O)NCC(=O)N(C)[C@@H](Cc1ccccc1)C(=O)NCCO [DAMGO],nH Historical,"Opiate µ(OP3, MOP)",0.60
Fc1ccc(C(OCCN2CCN(CCCc3ccccc3)CC2)c2ccc(F)cc2)cc1 [GBR-12909],nH Historical,[8],0.90
RPPGFSPFR [Bradykinin],nH Historical,Bradykinin B2,1.0
CCCCCCCCCCCCCC(=O)O[C@@H]1[C@@H](C)[C@@]2(O)[C@@H](C=C(CO)C[C@]3(O)C(=O)C(C)=C[C@@H]23)[C@@H]2C(C)(C)[C@]12OC(C)=O [PMA],IC50,Phorbol Ester [9],0.9 nM
same,IC50,Phorbol Ester [10],0.79 nM
same,Ki,Phorbol Ester [10],0.59 nM
CNC(=O)[C@H]1O[C@@H](n2cnc3c(NCc4cccc(I)c4)ncnc32)[C@H](O)[C@@H]1O [IB-MECA],nH Historical,Adenosine A3,0.80
CNC(=NCCSCc1csc(N=C(N)N)n1)NC#N [Tiotidine],nH Historical,Histamine H2,1.10
COC(=O)[C@@H]1[C@H]2C[C@H]3c4[nH]c5ccccc5c4CCN3C[C@@H]2CC[C@@H]1O [Yohimbine],nH Historical,Adrenergic α2A,0.90
COc1cc2nc(N3CCN(C(=O)c4ccco4)CC3)nc(N)c2cc1OC [Prazosin],nH Historical,Adrenergic α1A,0.90
same,nH Historical,Adrenergic α1B,1.0
COCCc1ccc(OCC(O)CNC(C)C)cc1 (stereo not shown) [Metoprolol],permeability of reference standard,[11],moderately permeable
COc1ccc2[nH]cc(CCNC(C)=O)c2c1 [Melatonin],nH Historical,Melatonin MT1,0.70

# Reference: paper PMC4077706, “Lifting the Mask: Identification of New Small Molecule Inhibitors of Uropathogenic Escherichia coli Group 2 Capsule Biogenesis” (PLoS ONE, 2014)
